From ChEMBL document CHEMBL1152115, “Optically active fluorinated cyclobutane nucleoside analogs with potent anti-herpes activity” (1993) come the findings set out here.

The structures appear in SMILES notation.

The test system of experiment [1] is Human alphaherpesvirus 1. The experiment is described as follows: Effective dose required to inhibit cell growth against HSV-1 (schooler). It counts as functional. Particulars: read-out: ED50 (the source's name).
Experiment [2] has as its system Human alphaherpesvirus 2. The experiment is described as follows: Effective dose required to inhibit cell growth against HSV-2 (186). It counts as functional. Particulars: read-out: ED50 (the source's name).
Experiment [3] concerns Human betaherpesvirus 5. The experiment can be described thus: Effective dose required to inhibit cell growth against HCMV (AD169). Particulars: read-out: ED50 (the source's name). It counts as functional.
Experiment [4] deals with Human alphaherpesvirus 3. The experiment is described as follows: Effective dose required to inhibit cell growth against VZV (Ellen). The format is functional. Particulars: read-out: ED50 (the source's name).
For experiment [5], the system named is Human alphaherpesvirus 3. The experiment can be described thus: Effective dose required to inhibit cell growth against VZV (Ellen); Value ranges from 25-63. The format is functional. Particulars: read-out: ED50 (the source's name).
The test system of experiment [6] is Human alphaherpesvirus 2. The experiment is described as follows: Effective dose required to inhibit cell growth against HSV-2 (186); Value ranges from 88-176. The format is functional. Particulars: read-out: ED50 (the source's name).
The subject of experiment [7] is Human alphaherpesvirus 3. The experiment is described as follows: Effective dose required to inhibit cell growth against VZV (Ellen); Value ranges from 88-177. It counts as functional. Particulars: read-out: ED50 (the source's name).
Experiment [8] concerns Human alphaherpesvirus 1. The experiment is described as follows: Effective dose required to inhibit cell growth against HSV-1 (schooler); Value ranges from 0.7-1.8. The format is functional. Particulars: read-out: ED50 (the source's name).
Experiment [9] has as its system Human betaherpesvirus 5. The experiment can be described thus: Effective dose required to inhibit cell growth against HCMV (AD169); Value ranges from 3.5-35. It counts as functional. Particulars: read-out: ED50 (the source's name).
The subject of experiment [10] is Human alphaherpesvirus 3. The experiment is described as follows: Effective dose required to inhibit cell growth against VZV (Ellen); Value ranges from 1.8-3.5. Particulars: read-out: ED50 (the source's name). The format is functional.
The test system of experiment [11] is Human alphaherpesvirus 1. The experiment can be described thus: Effective dose required to inhibit cell growth against HSV-1 (schooler); Value ranges from 0.7-1.7. It counts as functional. Particulars: read-out: ED50 (the source's name).
Experiment [12] deals with Human alphaherpesvirus 2. The experiment can be described thus: Effective dose required to inhibit cell growth against HSV-2 (186); Value ranges from 0.3-0.7. It counts as functional. Particulars: read-out: ED50 (the source's name).
The test system of experiment [13] is Human betaherpesvirus 5. The experiment is described as follows: Effective dose required to inhibit cell growth against HCMV (AD169); Value ranges from 18-35. It counts as functional. Particulars: read-out: ED50 (the source's name).
Experiment [14] has as its system Human alphaherpesvirus 3. The experiment can be described thus: Effective dose required to inhibit cell growth against VZV (Ellen); Value ranges from 0.7-1.7. It counts as functional. Particulars: read-out: ED50 (the source's name).
The subject of experiment [15] is Human betaherpesvirus 5. The experiment can be described thus: Effective dose required to inhibit cell growth against HCMV (AD169); Value ranges from 20-40. The format is functional. Particulars: read-out: ED50 (the source's name).
Experiment [16] concerns Human alphaherpesvirus 1. The experiment is described as follows: microbe, parasite or virus in culture. Particulars: Human alphaherpesvirus 1, read-out: ED50.
For experiment [17], the system named is Human alphaherpesvirus 2. The experiment is described as follows: microbe, parasite or virus in culture. Particulars: Human alphaherpesvirus 2, read-out: ED50.
Experiment [18] has as its system Human alphaherpesvirus 3. The experiment is described as follows: microbe, parasite or virus in culture. Particulars: Human alphaherpesvirus 3, read-out: ED50.

Consider `Nc1ccn([C@@H]2C(F)C(CO)[C@@H]2CO)c(=O)n1` (stereo partly drawn), for which the EC50 was greater than 411 µM in experiment [1], no less than 411 µM in experiment [2], greater than 411 µM in experiment [3] and greater than 411 µM in [4].
As for `O=c1[nH]c(=O)n([C@@H]2C(F)[C@H](CO)C2CO)cc1/C=C/I` (stereo partly drawn), the EC50 in [1] is greater than 252 µM; in experiment [2] it was greater than 252 µM; in experiment [3] it was greater than 252 µM; in [5], 25 µM.
As for `Nc1nc(O)c2ncn([C@@H]3C(F)[C@H](CO)C3CO)c2n1` (stereo partly drawn), the EC50 in experiment [1] was 88 µM; in experiment [6], 88 µM; in experiment [3], greater than 353 µM; in [7], 88 µM.
Consider `O=c1[nH]c(=O)n([C@@H]2C(F)[C@H](CO)C2CO)cc1/C=C/Br` (stereo partly drawn), for which the EC50 in experiment [1] was greater than 286 µM; in [2], greater than 286 µM; in [3] it was greater than 286 µM; in experiment [4] it was 286 µM.
For `Nc1nc(O)c2ncn([C@@H]3C(F)[C@H](CO)C3CO)c2n1` (mixture of isomers), the EC50 worked out at 0.7 µM in [8], 0.7 µM in experiment [2], 3.5 µM in experiment [9] and 1.8 µM in experiment [10].
In the case of `Nc1nc(O)c2ncn([C@@H]3C(F)[C@H](CO)C3CO)c2n1` (single isomer, unassigned; (-)), the EC50 in [11] worked out at 0.7 µM; in experiment [12], 0.3 µM; in experiment [13], 18 µM; in experiment [14] it was 0.7 µM.
In the case of `Nc1nc2c(ncn2COCCO)c(=O)[nH]1` [ACYCLOVIR], the EC50 in experiment [15] was found to be 20 µM; in experiment [16], 0.2 µM; in experiment [17], 0.4 µM; in experiment [18] it was 2 µM.
